From ChEMBL document CHEMBL5257053, “Discovery of Orally Bioavailable FGFR2/FGFR3 Dual Inhibitors via Structure-Guided Scaffold Repurposing Approach” (ACS Med Chem Lett, 2023)
Converted amounts (≈) assume the structure as drawn.

Assays:
[1] = Clearance in Sprague-Dawley rat at 3 mg/kg, po or 1 mg/kg, iv measured up to 24 hrs; type: ADME, organism-based; conditions: in vivo
[2] = Solubility of compound in fasted state stimulated intestinal fluid; type: ADME; conditions: fasted state simulated intestinal fluid
Activin receptor type-1 = target: T1, Activin receptor type-1 (Homo sapiens, UniProt Q04771); experiment: Inhibition of recombinant human ALK2 (147 to end residues) expressed in Sf9 infected baculovirus expression system using TRF0130 as substrate incubated for 3 hrs in presence of […]
T1 sequence (Q04771 whole entry): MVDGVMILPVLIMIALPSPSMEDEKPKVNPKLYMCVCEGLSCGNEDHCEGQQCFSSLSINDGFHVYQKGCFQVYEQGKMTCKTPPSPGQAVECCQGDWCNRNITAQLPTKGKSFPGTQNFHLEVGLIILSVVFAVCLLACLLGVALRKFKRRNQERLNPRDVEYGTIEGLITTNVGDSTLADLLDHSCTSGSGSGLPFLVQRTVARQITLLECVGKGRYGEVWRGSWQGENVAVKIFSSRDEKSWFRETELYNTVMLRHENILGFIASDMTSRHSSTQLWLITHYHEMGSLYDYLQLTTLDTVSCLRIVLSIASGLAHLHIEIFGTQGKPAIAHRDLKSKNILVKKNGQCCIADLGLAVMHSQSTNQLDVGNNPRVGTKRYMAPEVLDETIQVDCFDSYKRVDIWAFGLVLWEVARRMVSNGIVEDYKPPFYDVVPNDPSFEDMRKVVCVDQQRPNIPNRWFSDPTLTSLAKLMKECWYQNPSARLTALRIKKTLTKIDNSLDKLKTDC

[3] = target: Vascular endothelial growth factor receptor 2 (Homo sapiens, UniProt P35968); experiment: Inhibition of KDR (unknown origin) using peptide substrate incubated for 90 mins in presence of ATP by HTRF method
Sequence of Vascular endothelial growth factor receptor 2 (P35968 whole entry): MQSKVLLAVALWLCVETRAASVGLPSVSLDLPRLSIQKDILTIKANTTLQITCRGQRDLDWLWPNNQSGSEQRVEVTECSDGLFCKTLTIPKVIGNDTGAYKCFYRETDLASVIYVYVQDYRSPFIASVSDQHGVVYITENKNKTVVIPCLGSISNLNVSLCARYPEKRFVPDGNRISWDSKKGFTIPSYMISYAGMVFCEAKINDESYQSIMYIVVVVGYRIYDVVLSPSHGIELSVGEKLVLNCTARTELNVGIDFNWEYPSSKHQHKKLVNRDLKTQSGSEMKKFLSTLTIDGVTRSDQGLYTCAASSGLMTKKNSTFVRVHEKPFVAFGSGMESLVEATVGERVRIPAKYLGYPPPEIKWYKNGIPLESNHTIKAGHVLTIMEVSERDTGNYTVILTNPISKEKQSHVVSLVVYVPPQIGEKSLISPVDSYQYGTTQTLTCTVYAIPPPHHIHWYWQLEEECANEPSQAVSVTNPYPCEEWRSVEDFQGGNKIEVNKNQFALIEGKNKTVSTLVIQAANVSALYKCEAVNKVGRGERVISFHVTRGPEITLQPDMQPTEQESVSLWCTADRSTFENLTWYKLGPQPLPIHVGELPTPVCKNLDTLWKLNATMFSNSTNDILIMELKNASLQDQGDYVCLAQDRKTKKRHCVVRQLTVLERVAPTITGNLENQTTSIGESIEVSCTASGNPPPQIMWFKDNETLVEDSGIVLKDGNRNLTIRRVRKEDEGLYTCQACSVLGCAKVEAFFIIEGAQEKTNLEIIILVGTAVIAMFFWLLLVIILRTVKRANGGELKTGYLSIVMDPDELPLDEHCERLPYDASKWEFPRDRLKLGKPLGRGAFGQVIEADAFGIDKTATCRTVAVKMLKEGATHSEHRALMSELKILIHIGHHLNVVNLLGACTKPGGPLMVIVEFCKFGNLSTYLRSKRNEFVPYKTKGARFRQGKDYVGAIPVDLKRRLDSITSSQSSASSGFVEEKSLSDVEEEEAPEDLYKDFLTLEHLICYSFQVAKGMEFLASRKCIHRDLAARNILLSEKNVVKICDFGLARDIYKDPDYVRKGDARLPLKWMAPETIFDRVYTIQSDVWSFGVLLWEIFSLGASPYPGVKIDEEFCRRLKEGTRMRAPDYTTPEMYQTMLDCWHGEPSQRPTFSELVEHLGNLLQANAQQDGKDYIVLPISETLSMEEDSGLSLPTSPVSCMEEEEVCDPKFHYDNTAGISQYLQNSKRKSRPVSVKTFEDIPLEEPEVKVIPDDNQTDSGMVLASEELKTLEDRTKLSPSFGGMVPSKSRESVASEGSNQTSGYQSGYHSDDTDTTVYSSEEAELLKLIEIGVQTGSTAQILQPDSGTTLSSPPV

[4] = Cmax in cynomolgus monkey at 3 mg/kg, po measured up to 24 hrs; type: ADME, organism-based, Macaca fascicularis; set-up: time < 24 hrs, dose 3 mg/kg, route po; conditions: in vivo
[5] = Volume of distribution at steady state in cynomolgus monkey at 3 mg/kg, po or 1 mg/kg, iv measured up to 24 hrs; type: ADME, organism-based, Macaca fascicularis; conditions: in vivo
[6] = target: T2, Fibroblast growth factor receptor 2 (Homo sapiens, UniProt P21802); experiment: Inhibition of FGFR2 in human KATOIII cells incubated for 1 hr; type: cell-based, KATO III stomach cancer cell line
T2 sequence (P21802 whole entry): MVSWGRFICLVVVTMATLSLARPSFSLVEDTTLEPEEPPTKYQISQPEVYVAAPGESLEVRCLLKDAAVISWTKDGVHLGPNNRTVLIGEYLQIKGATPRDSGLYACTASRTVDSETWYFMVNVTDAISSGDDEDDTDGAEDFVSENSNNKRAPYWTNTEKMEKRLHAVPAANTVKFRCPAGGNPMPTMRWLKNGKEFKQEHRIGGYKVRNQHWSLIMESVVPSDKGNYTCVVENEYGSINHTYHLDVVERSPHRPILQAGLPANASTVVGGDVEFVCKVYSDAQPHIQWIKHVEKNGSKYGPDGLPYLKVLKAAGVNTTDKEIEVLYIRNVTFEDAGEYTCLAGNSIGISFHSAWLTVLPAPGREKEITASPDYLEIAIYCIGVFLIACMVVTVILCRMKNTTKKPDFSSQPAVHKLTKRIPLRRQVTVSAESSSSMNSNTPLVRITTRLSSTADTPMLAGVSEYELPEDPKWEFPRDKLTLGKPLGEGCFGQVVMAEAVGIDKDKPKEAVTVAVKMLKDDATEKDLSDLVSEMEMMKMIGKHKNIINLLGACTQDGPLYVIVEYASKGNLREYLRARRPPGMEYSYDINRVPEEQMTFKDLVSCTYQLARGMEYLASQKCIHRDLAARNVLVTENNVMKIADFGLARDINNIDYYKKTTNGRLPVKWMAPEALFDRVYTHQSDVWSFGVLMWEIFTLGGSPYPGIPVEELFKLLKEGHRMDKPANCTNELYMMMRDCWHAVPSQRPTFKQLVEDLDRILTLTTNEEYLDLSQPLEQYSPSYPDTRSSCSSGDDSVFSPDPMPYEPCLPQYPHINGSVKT

[7] = Drug concentration in NSG mouse plasma at 30 mg/kg, po measured after 2 hrs; type: ADME, organism-based
[8] = Volume of distribution at steady state in Sprague-Dawley rat at 3 mg/kg, po or 1 mg/kg, iv measured up to 24 hrs; type: ADME, organism-based; conditions: in vivo
[9] = target: Fibroblast growth factor receptor 4 (Homo sapiens, UniProt P22455); experiment: Inhibition of recombinant human FGFR4 (460 to 802 residues) using biotin-EQEDEPEGDYFEWLE-amide as substrate preincubated for 5 to 10 mins followed by substrate addition and measured after 1 hr in presence of ATP by HTRF assay
Sequence of Fibroblast growth factor receptor 4 (P22455 whole entry, the tested form may be a part): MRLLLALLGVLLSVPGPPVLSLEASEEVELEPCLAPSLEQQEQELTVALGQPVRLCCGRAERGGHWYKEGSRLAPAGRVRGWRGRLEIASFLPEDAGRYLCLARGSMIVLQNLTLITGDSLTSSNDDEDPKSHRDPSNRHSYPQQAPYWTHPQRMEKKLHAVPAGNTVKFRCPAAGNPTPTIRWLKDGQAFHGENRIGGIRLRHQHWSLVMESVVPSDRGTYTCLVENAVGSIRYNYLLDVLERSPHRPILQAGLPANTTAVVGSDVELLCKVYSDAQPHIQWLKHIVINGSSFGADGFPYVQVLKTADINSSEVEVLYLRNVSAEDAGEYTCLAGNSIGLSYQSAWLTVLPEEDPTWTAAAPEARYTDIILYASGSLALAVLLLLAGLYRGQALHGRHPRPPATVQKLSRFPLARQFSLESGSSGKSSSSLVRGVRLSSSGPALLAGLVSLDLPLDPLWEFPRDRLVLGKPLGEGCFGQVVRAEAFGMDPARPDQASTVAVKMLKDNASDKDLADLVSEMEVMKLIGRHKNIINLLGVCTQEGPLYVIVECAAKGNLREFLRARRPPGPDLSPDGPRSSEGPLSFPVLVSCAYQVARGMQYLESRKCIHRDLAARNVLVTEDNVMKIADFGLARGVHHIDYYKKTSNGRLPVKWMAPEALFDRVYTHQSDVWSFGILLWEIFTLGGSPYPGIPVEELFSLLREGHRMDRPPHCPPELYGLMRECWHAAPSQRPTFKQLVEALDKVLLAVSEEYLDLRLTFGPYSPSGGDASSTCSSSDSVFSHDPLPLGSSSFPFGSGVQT

Cytochrome P450 2C9 = Cytochrome P450 2C9 (Homo sapiens, UniProt P11712); experiment: Inhibition of CYP2C9 (unknown origin); type: ADME
Sequence of Cytochrome P450 2C9 (P11712 whole entry): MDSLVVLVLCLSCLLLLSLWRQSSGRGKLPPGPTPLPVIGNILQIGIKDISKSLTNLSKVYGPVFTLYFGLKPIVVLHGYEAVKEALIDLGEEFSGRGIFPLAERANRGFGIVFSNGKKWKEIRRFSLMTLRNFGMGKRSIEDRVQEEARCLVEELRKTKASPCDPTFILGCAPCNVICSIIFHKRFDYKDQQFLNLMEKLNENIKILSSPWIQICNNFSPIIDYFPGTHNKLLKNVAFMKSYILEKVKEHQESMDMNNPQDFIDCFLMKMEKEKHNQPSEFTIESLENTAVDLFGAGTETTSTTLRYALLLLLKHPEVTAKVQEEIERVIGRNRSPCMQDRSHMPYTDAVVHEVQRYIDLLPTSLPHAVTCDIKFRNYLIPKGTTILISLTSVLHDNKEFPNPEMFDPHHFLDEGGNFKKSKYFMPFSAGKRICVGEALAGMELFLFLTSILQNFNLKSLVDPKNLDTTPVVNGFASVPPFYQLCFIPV

[10] = Solubility of compound in stimulated gastric fluid; type: ADME; conditions: simulated gastric fluid
[11] = Metabolic stability in human liver microsomes assessed as intrinsic clearance at 1 uM preincubated for 2 mins followed by NADPH addition and measured upto 30 mins by LC-MS/MS analysis; type: ADME, Microsome; conditions: time < 32 min, read-out: CLH (converted)
[12] = Cmax in Sprague-Dawley rat at 3 mg/kg, po measured up to 24 hrs; type: ADME, organism-based; set-up: dose 3 mg/kg, time < 24 hrs, route po; conditions: in vivo
[13] = Clearance in cynomolgus monkey at 3 mg/kg, po or 1 mg/kg, iv measured up to 24 hrs; type: ADME, organism-based, Macaca fascicularis; conditions: in vivo
[14] = AUCinfinity in Sprague-Dawley rat at 3 mg/kg, po measured up to 24 hrs; type: ADME, organism-based; set-up: dose 3 mg/kg, time < 24 hrs, route po; conditions: in vivo
[15] = target: T2, Fibroblast growth factor receptor 2; experiment: Inhibition of recombinant human FGFR2 (400 to 821 residues) using biotin-EQEDEPEGDYFEWLE-amide as substrate preincubated for 5 to 10 mins followed by substrate addition and measured after 1 hr in presence of ATP by HTRF assay
[16] = Protein binding in human plasma assessed as free fraction after 2 hrs by equilibrium dialysis method; type: ADME, cell-free
Cytochrome P450 2D6 = Cytochrome P450 2D6 (Homo sapiens, UniProt P10635); experiment: Inhibition of CYP2D6 (unknown origin); type: ADME
Sequence of Cytochrome P450 2D6 (P10635 whole entry): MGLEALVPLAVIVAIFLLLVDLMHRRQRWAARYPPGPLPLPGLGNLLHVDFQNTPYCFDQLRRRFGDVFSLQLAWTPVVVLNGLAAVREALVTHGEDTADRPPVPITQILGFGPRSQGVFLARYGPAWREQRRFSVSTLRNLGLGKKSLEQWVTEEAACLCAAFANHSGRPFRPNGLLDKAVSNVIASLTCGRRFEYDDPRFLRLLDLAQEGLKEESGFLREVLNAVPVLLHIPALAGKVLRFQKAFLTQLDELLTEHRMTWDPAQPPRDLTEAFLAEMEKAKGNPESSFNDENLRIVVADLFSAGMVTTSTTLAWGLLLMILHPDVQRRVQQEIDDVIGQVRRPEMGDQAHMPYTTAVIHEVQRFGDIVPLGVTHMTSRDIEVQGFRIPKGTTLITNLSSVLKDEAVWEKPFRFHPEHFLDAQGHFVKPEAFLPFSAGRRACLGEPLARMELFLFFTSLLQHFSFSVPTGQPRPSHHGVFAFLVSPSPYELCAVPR

[17] = AUCinfinity in cynomolgus monkey at 3 mg/kg, po measured up to 24 hrs; type: ADME, organism-based, Macaca fascicularis; set-up: time < 24 hrs, dose 3 mg/kg, route po; conditions: in vivo
[18] = Half life in cynomolgus monkey at 3 mg/kg, po or 1 mg/kg, iv measured up to 24 hrs; type: ADME, organism-based, Macaca fascicularis; conditions: in vivo
Cytochrome P450 3A4 = Cytochrome P450 3A4 (Homo sapiens, UniProt P08684); experiment: Inhibition of CYP3A4 (unknown origin); type: ADME
Sequence of Cytochrome P450 3A4 (P08684 whole entry): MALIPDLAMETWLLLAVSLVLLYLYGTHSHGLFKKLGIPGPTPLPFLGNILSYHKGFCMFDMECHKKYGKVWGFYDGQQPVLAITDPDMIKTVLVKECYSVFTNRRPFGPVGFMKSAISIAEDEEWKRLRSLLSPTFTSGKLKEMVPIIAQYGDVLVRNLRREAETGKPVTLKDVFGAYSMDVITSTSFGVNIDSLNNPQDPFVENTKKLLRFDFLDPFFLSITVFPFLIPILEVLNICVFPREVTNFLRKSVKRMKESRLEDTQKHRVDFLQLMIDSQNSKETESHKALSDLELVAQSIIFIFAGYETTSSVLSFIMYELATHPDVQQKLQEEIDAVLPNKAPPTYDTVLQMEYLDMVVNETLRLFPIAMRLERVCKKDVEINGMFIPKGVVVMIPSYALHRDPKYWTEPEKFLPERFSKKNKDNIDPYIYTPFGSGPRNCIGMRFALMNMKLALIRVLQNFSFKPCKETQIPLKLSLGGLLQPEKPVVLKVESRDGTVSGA

hERG (KCNH2) = hERG (KCNH2) (Homo sapiens, UniProt Q12809); experiment: Inhibition of human ERG at 10 uM relative to control; type: toxicity
Cytochrome P450 2B6 = target: T3, Cytochrome P450 2B6 (Homo sapiens, UniProt P20813); experiment: Inhibition of CYP2B6 (unknown origin); type: ADME
T3 sequence (P20813 whole entry): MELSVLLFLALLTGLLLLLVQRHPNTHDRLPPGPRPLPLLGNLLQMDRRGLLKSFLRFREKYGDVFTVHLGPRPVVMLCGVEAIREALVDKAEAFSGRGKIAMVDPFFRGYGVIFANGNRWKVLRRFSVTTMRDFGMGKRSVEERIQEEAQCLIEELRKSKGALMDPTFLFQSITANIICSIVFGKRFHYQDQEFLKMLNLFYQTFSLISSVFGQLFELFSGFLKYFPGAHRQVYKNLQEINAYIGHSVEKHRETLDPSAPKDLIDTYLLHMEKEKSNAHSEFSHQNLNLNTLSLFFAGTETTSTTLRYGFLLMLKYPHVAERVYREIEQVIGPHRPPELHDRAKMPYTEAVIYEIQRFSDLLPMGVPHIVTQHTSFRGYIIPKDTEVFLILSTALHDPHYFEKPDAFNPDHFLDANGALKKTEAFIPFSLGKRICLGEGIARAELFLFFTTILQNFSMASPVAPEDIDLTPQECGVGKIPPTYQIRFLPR

[19] = Oral bioavailability in cynomolgus monkey at 3 mg/kg measured up to 24 hrs; type: ADME, organism-based, Macaca fascicularis; conditions: in vivo
Cytochrome P450 1A2 = target: T4, Cytochrome P450 1A2 (Homo sapiens, UniProt P05177); experiment: Inhibition of CYP1A2 (unknown origin); type: ADME
T4 sequence (P05177 whole entry): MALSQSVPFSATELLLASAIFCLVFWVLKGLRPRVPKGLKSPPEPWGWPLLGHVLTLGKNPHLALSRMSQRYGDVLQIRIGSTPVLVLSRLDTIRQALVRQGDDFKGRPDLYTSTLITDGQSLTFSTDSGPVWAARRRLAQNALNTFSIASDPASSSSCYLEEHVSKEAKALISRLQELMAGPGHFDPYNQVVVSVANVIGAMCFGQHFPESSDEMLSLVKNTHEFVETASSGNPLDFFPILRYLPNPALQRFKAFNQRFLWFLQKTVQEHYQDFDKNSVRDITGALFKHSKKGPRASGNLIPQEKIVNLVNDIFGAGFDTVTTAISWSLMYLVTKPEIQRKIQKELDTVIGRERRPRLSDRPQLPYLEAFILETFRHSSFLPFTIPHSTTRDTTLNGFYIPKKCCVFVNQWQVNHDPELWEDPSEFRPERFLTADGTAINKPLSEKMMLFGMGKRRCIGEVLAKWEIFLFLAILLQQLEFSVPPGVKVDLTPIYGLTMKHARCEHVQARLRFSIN

[20] = target: Fibroblast growth factor receptor 3 (Mus musculus, UniProt Q61851); experiment: Inhibition of FGFR3 phosphorylation in mouse BaF3 cells incubated for 2 hrs; type: cell-based
[21] = Permeability in human Caco-2 cells incubated for 120 mins by LC-MS/MS analysis; type: ADME, cell-based; conditions: read-out: permeability
[22] = Oral bioavailability in Sprague-Dawley rat at 3 mg/kg measured up to 24 hrs; type: ADME, organism-based; conditions: in vivo
[23] = Half life in Sprague-Dawley rat at 3 mg/kg, po or 1 mg/kg, iv measured up to 24 hrs; type: ADME, organism-based; conditions: in vivo

CN1C[C@@H]2CC[C@H](C1=O)N2c1ncc2[nH]nc(-c3cnn(C4CCC4)c3)c2n1
CL [1]: 23.3 mL/min/kg
solubility [2]: 557 µg/mL (≈ 1470 µM)
IC50 (Activin receptor type-1): 477 nM
IC50 [3]: 184 nM
Cmax [4]: 825 nM
Vdss [5]: 0.66 L/kg
IC50 [6]: 24 nM
concentration at 2 h [7]: 760 nM
Vdss [8]: 2.6 L/kg
IC50 [9]: 157 nM
IC50 (Cytochrome P450 2C9): > 10000 nM
solubility [10]: > 400 µg/mL
CLint scaled at 1 µM [11]: 16.7 mL/min/kg
Cmax [12]: 5550 nM
CL [13]: 12 mL/min/kg
AUC(0-inf) [14]: 5.82 µM·h
IC50 [15]: 1.8 nM
fraction unbound at 2 h [16]: 0.11
IC50 (Cytochrome P450 2D6): > 10000 nM
AUC(0-inf) [17]: 2.21 µM·h
half-life [18]: 3.2 h
IC50 (Cytochrome P450 3A4): > 10000 nM
inhibition at 10 µM (hERG (KCNH2)): < 10%
IC50 (Cytochrome P450 2B6): > 10000 nM
bioavailability [19]: 20%
IC50 (Cytochrome P450 1A2): > 10000 nM
IC50 [20]: 16 nM
Papp at 2 h [21]: 4 ×10⁻⁶ cm/s
bioavailability [22]: 100%
half-life [23]: 6.6 h
